From paper PMC9454270, “Peptidomimetic Small-Molecule Inhibitors of 3CLPro Activity and Spike–ACE2 Interaction: Toward Dual-Action Molecules against Coronavirus Infections” (The Journal of Organic Chemistry, 2022)
*1 amine or outer side, *2 acyl side, *3 side chain or, on linkers, in order; H or OH if unused. Where a SMILES comes first, the peptide text is derived from it. [ ]: non-standard residue; d: D form. X1 = O=C1CCN([*:1])CCN1[C@@H](Cc1ccccc1)C(=O)[*:2]

Key:
[1] = molecular target: T1, 3CLPro enzyme, the main protease of SARS-CoV-2 (Severe acute respiratory syndrome coronavirus 2, UniProt P0DTD1); test: biochemical; type: biochemical; details: for % In(3CLPro) at 100 μM: pH 7
T1 construct: 3CLPro enzyme, the main protease of SARS-CoV-2

[2] = molecular target: SARS-CoV-2 spike/ACE2 complex (RBD of Spike S protein binding to human receptor ACE2) (Severe acute respiratory syndrome coronavirus 2, UniProt P0DTC2); test: biochemical; parameters: species or system SARS-CoV-2 / human
SARS-CoV-2 infection = details: cited from earlier work

Row | Compound | IC50 [1] | % In(3CLPro) at 100 μM [1] | % In(spike–ACE2) at 100 μM [2] | IC50 [2] | inhibition potency toward SARS-CoV-2 infection (SARS-CoV-2 infection)
1 | NC(=O)CC[C@H](NC(=O)[C@H](Cc1ccc(O)cc1)NC(=O)[C@H](Cc1ccccc1)N1CCN(C(=O)[C@H](CC(=O)O)NC(=O)[C@@H](N)CCC(=O)O)CC1=O)C(N)=O [compound 15, H-ED(4b)YQ-NH2] | 15 µM | 90–91% |  |  | 
2 | NC(=O)CC[C@H](NC(=O)[C@H](Cc1ccc(O)cc1)NC(=O)[C@H](Cc1ccccc1)N1CCN(C(=O)[C@H](CC(=O)O)NC(=O)[C@@H](N)CCC(=O)O)CCC1=O)C(N)=O [compound 16, H-ED(11b)YQ-NH2] (H-ED[X1]YQ-NH2) | 127 µM | 45–57% | 66–76% | 20 µM | 
3 | H-EDLFYQ-NH2 [EDLFYQ (SAP-6)] |  |  |  |  | millimolar range
